Source: publication PMC6934184, “Selective DNA-PKcs inhibition extends the therapeutic index of localized radiotherapy and chemotherapy” (The Journal of Clinical Investigation, 2019)

Target: T1, RET (Homo sapiens, UniProt P07949)
T1 construct: purchased Thermo Fisher Scientific (Life Technologies) SelectScreen
Assay: SelectScreen Z'LYTE
Assay type: biochemical
Outline: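 NU5455 was profiled across the SelectScreen Broad panel of kinase activity and binding assays. Z'LYTE reactions such as CSF1R ran at apparent Km ATP, while the Adapta CAMK1 assay used ATP listed as 10. Values are given as percent.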

T1 sequence (P07949 29-1114): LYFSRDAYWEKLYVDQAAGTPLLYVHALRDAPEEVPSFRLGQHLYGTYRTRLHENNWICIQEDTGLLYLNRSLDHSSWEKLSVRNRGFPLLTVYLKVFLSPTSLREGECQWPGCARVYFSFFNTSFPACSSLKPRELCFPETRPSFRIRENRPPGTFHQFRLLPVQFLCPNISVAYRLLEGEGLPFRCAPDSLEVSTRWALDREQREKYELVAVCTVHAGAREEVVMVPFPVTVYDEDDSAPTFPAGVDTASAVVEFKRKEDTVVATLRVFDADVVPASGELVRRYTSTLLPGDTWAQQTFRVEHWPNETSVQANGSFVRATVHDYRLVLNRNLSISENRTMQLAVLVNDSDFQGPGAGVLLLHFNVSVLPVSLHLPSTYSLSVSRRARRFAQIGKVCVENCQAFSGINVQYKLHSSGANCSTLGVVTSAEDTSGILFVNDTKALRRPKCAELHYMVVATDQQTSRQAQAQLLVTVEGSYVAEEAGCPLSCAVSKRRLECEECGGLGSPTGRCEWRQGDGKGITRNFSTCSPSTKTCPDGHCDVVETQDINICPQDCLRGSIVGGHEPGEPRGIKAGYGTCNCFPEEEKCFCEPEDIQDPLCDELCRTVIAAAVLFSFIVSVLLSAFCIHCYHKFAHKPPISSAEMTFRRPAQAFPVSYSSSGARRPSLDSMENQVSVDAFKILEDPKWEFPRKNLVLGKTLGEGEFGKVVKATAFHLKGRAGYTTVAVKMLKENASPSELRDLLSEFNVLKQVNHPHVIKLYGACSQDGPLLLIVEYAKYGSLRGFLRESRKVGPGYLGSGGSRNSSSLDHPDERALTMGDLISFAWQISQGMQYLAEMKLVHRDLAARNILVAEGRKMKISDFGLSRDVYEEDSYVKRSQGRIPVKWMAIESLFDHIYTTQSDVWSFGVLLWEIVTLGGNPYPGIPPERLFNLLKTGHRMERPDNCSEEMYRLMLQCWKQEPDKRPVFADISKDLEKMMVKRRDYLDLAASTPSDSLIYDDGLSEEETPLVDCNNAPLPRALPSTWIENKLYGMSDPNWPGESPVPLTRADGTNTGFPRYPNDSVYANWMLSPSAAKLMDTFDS

For `CN(C(=O)CN1CCOCC1)c1ccc2sc3c(-c4cccc5c(=O)cc(N6CC7CCC(C6)O7)oc45)cccc3c2c1` [NU5455], the inhibition at 1 µM was 5.2%.
